Laboratory results as given in patent US20200270309A1, “MALEIMIDE GROUP-MODIFIED ANGIOGENESIS INHIBITOR HM-1 AND USE THEREOF” (NANJING ANJI BIOLOGICAL TECHNOLOGY CO., LTD, priority 2017, published 2020).
Marks after values point to notes of the source that are not given here. Peptide text beside a SMILES is read from it. * marks the point of attachment. X84 = O=C1C=CC(=O)N1c1ccccc1CCCCCCCCCCCCC(=O)*; X54 = O=C1C=CC(=O)N1c1cccc(CCCCCCC(=O)*)c1; X63 = O=C1C=CC(=O)N1c1ccccc1CCCCCCC(=O)*; X75 = O=C1C=CC(=O)N1c1cccc(CC(=O)*)c1

Tests used:
[1] = tested on: carrageenan-induced toe swelling; assay: Carrageenan-induced toe swelling in rats; format: in vivo; conditions: SD rats; for Swelling degree 1 h: 1 h after carrageenan; for Swelling degree 3 h: 3 h after carrageenan; for Swelling degree 5 h: 5 h after carrageenan; for Swelling degree 7 h: 7 h after carrageenan
How it was run: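 Rats dosed by injection once daily for 3 d, controls given equal-volume saline. Right hind paw volume measured by water displacement to a marked joint line; swelling degree (mL) is paw volume after carrageenan inflammation minus volume before.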

splenic lymphocytes = assay: Proliferation of splenic lymphocytes in mice (ConA, MTT); format: cell-based; conditions: ConA-stimulated mouse splenic lymphocytes, 48 h
How it was run: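 Mouse splenocytes (5×10^6 cells/mL, RPMI 1640 with 10% calf serum, red cells lysed) stimulated with ConA plus varying polypeptide concentrations, with blank, ConA-only and Dex groups, 48 h at 37° C. MTT added for 4 h, formazan dissolved in DMSO, OD read at 570 nm; five replicates.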

adjuvant arthritis = assay: Rat adjuvant arthritis (AA) animal model; format: in vivo, SD rats; conditions: 4.0 mg/kg; for Clinical score: intravenous in the tail once every five days from day 10, four paws scored 0-4, max 16, mean±SD; for Joint swelling degree / Left and right paw swelling degree: intravenous in the tail once every five days from day 10, mean±SD
[2] = tested on: choroidal neovascularization; assay: Choroidal neovascularization in rats (laser photocoagulation, FFA); format: in vivo; conditions: BN rats
How it was run: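 Male BN rats aged 6-8 weeks were given 8 krypton-laser spots around the optic disc (647.1 nm, 350 mW, 50 μm, 0.05 s). Once the model was confirmed, groups of 5 got daily intravitreal compound at 0.05 μM or saline for 1 week. FFA followed at 3, 7, 14 and 28 days after dosing.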

[3] = Half-lives and pharmacokinetic parameters of polypeptides vs HM-1; conditions: in vivo; for half-life: T1/2β (half-life)
[4] = tested on: human retinal capillary endothelial cells (HRCECs); assay: MTT proliferation inhibition on HRCECs; format: cell-based; conditions: 48 h; for A570 nm-A630 nm: mean±SD
How it was run: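 HRCECs seeded at 3.0×10^4 cells/mL, adhered overnight, then exposed to polypeptide for 48 h at 37 °C, 5% CO2. MTT added 4 h, formazan dissolved in DMSO, absorbance 570/630 nm; PIR (%) = 1 − treated/negative control, mean±SD of three independent runs.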

[5] = day 3 after administration, total light spot number was 297, 0.05 μM in the vitreous chamber once a day for 1 week
[6] = day 7 after administration, total light spot number was 186, 0.05 μM in the vitreous chamber once a day for 1 week
[7] = day 14 after administration, total light spot number was 137, 0.05 μM in the vitreous chamber once a day for 1 week
[8] = day 28 after administration, total light spot number was 69, 0.05 μM in the vitreous chamber once a day for 1 week

Row | SMILES | Swelling degree 1 h ([1]; 2.0 mg/kg once a day for 3 d) | Swelling degree 3 h ([1]; 2.0 mg/kg once a day for 3 d) | Swelling degree 5 h ([1]; 2.0 mg/kg once a day for 3 d) | Swelling degree 7 h ([1]; 2.0 mg/kg once a day for 3 d) | Swelling degree 1 h ([1]; 4.0 mg/kg once a day for 3 d) | Swelling degree 3 h ([1]; 4.0 mg/kg once a day for 3 d) | Swelling degree 5 h ([1]; 4.0 mg/kg once a day for 3 d) | Swelling degree 7 h ([1]; 4.0 mg/kg once a day for 3 d) | A570 nm/A630 nm (splenic lymphocytes; polypeptide dose 0.05 μM) | Inhibition rate (%) (splenic lymphocytes; polypeptide dose 0.05 μM) | A570 nm/A630 nm (splenic lymphocytes; polypeptide dose 0.1 μM) | Inhibition rate (%) (splenic lymphocytes; polypeptide dose 0.1 μM) | A570 nm/A630 nm (splenic lymphocytes; polypeptide dose 0.2 μM) | Inhibition rate (%) (splenic lymphocytes; polypeptide dose 0.2 μM) | Clinical score (adjuvant arthritis) | Joint swelling degree (adjuvant arthritis) | Left and right paw swelling degree (adjuvant arthritis) | CNV Incidence (%) [2, 5] | Leakage Light spot number [2, 5] | CNV Incidence (%) [2, 6] | also measured
1 | C[C@H](NC(=O)CNC(=O)[C@H](CCCNC(=N)N)NC(=O)CCCCCCc1ccccc1N1C(=O)C=CC1=O)C(=O)N[C@@H](CC(=O)O)C(=O)N[C@@H](CCCNC(=N)N)C(=O)N[C@@H](C)C(=O)NCC(=O)NCC(=O)NCC(=O)NCC(=O)N[C@@H](CCCNC(=N)N)C(=O)NCC(=O)N[C@@H](CC(=O)O)C(=O)O [X18] (X63-RGADRAGGGGRGD-OH) | 0.23 ± 0.18 mg | 0.33 ± 0.16 mg | 0.36 ± 0.15 mg | 0.32 ± 0.13 mg | 0.24 ± 0.17 mg | 0.39 ± 0.18 mg | 0.45 ± 0.15 mg | 0.33 ± 0.12 mg | 0.6041 ± 0.0524 | 10.56% | 0.5571 ± 0.0554 | 17.52% | 0.4402 ± 0.0534 | 34.82% | 5.67 ± 1.04 | 0.83 ± 0.15 mm | 3.81 ± 0.85 mm | 53.87% | 160 | 46.24% | Leakage Light spot number [2, 6]: 86; CNV Incidence (%) [2, 7]: 45.99%; Leakage Light spot number [2, 7]: 63; CNV Incidence (%) [2, 8]: 44.93%; Leakage Light spot number [2, 8]: 31; AUC(0-inf) [3]: 27200 ± 7310 ng·h/mL; MRT inf [3]: 48.7 ± 14.1 h; clearance [3]: 0.613 mL/min/kg; half-life [3]: 33.75 ± 0.27 h; Inhibition rate (%) ([4]; dose 0.05 μM): 42.60%*; A570 nm-A630 nm ([4]; dose 0.05 μM): 0.7586 ± 0.05265; Inhibition rate (%) ([4]; dose 0.1 μM): 52.30%**; A570 nm-A630 nm ([4]; dose 0.1 μM): 0.6304 ± 0.03508; Inhibition rate (%) ([4]; dose 0.2 μM): 61.78%*; A570 nm-A630 nm ([4]; dose 0.2 μM): 0.5051 ± 0.08266
2 | C[C@H](NC(=O)CNC(=O)[C@H](CCCNC(=N)N)NC(=O)CCCCCCc1cccc(N2C(=O)C=CC2=O)c1)C(=O)N[C@@H](CC(=O)O)C(=O)N[C@@H](CCCNC(=N)N)C(=O)N[C@@H](C)C(=O)NCC(=O)NCC(=O)NCC(=O)NCC(=O)N[C@@H](CCCNC(=N)N)C(=O)NCC(=O)N[C@@H](CC(=O)O)C(=O)O [X30] (X54-RGADRAGGGGRGD-OH) | 0.26 ± 0.15 mg | 0.36 ± 0.18 mg | 0.40 ± 0.16 mg | 0.35 ± 0.11 mg | 0.25 ± 0.19 mg | 0.33 ± 0.13 mg | 0.39 ± 0.18 mg | 0.34 ± 0.15 mg | 0.5725 ± 0.0671 | 15.24% | 0.4914 ± 0.0652 | 27.24% | 0.4759 ± 0.0702 | 29.54% | 5.73 ± 1.05 | 0.82 ± 0.12 mm | 3.76 ± 0.64 mm | 51.85% | 154 | 48.92% | Leakage Light spot number [2, 6]: 91; CNV Incidence (%) [2, 7]: 45.99%; Leakage Light spot number [2, 7]: 63; CNV Incidence (%) [2, 8]: 40.58%; Leakage Light spot number [2, 8]: 28; AUC(0-inf) [3]: 28300 ± 6880 ng·h/mL; MRT inf [3]: 50.8 ± 10.3 h; clearance [3]: 0.588 mL/min/kg; half-life [3]: 35.2 ± 0.37 h; Inhibition rate (%) ([4]; dose 0.05 μM): 42.46%*; A570 nm-A630 nm ([4]; dose 0.05 μM): 0.7605 ± 0.00513; Inhibition rate (%) ([4]; dose 0.1 μM): 60.14%**; A570 nm-A630 nm ([4]; dose 0.1 μM): 0.5268 ± 0.06831; Inhibition rate (%) ([4]; dose 0.2 μM): 65.82%*; A570 nm-A630 nm ([4]; dose 0.2 μM): 0.4517 ± 0.03378
3 | C[C@H](NC(=O)CNC(=O)[C@H](CCCNC(=N)N)NC(=O)CCCCCCCCCCCCc1ccccc1N1C(=O)C=CC1=O)C(=O)N[C@@H](CC(=O)O)C(=O)N[C@@H](CCCNC(=N)N)C(=O)N[C@@H](C)C(=O)NCC(=O)NCC(=O)NCC(=O)NCC(=O)N[C@@H](CCCNC(=N)N)C(=O)NCC(=O)N[C@@H](CC(=O)O)C(=O)O [X24] (X84-RGADRAGGGGRGD-OH) | 0.24 ± 0.16 mg | 0.34 ± 0.18 mg | 0.43 ± 0.12 mg | 0.38 ± 0.13 mg | 0.23 ± 0.17 mg | 0.35 ± 0.13 mg | 0.38 ± 0.16 mg | 0.32 ± 0.12 mg | 0.5823 ± 0.0474 | 14.12% | 0.5615 ± 0.1155 | 16.86% | 0.5142 ± 0.0636 | 23.87% | 5.73 ± 1.15 | 0.76 ± 0.15 mm | 3.94 ± 0.70 mm | 54.21% | 161 | 49.46% | Leakage Light spot number [2, 6]: 92; CNV Incidence (%) [2, 7]: 45.99%; Leakage Light spot number [2, 7]: 63; CNV Incidence (%) [2, 8]: 44.93%; Leakage Light spot number [2, 8]: 31; AUC(0-inf) [3]: 29700 ± 7580 ng·h/mL; MRT inf [3]: 53.1 ± 13.5 h; clearance [3]: 0.562 mL/min/kg; half-life [3]: 36.77 ± 0.29 h; Inhibition rate (%) ([4]; dose 0.05 μM): 40.01%*; A570 nm-A630 nm ([4]; dose 0.05 μM): 0.7929 ± 0.02399; Inhibition rate (%) ([4]; dose 0.1 μM): 44.87%**; A570 nm-A630 nm ([4]; dose 0.1 μM): 0.7286 ± 0.00571; Inhibition rate (%) ([4]; dose 0.2 μM): 49.60%*; A570 nm-A630 nm ([4]; dose 0.2 μM): 0.6661 ± 0.02372
4 | C[C@H](NC(=O)CNC(=O)[C@H](CCCNC(=N)N)NC(=O)Cc1cccc(N2C(=O)C=CC2=O)c1)C(=O)N[C@@H](CC(=O)O)C(=O)N[C@@H](CCCNC(=N)N)C(=O)N[C@@H](C)C(=O)NCC(=O)NCC(=O)NCC(=O)NCC(=O)N[C@@H](CCCNC(=N)N)C(=O)NCC(=O)N[C@@H](CC(=O)O)C(=O)O [X25] (X75-RGADRAGGGGRGD-OH) | 0.29 ± 0.17 mg | 0.38 ± 0.12 mg | 0.46 ± 0.18 mg | 0.34 ± 0.13 mg | 0.27 ± 0.15 mg | 0.36 ± 0.19 mg | 0.44 ± 0.18 mg | 0.33 ± 0.12 mg | 0.5838 ± 0.0861 | 13.56% | 0.5673 ± 0.0906 | 16.01% | 0.4576 ± 0.1221 | 32.25% | 5.72 ± 1.11 | 0.71 ± 0.16 mm | 3.76 ± 0.09 mm | 51.85% | 154 | 47.31% | Leakage Light spot number [2, 6]: 88; CNV Incidence (%) [2, 7]: 43.07%; Leakage Light spot number [2, 7]: 59; CNV Incidence (%) [2, 8]: 44.93%; Leakage Light spot number [2, 8]: 31; AUC(0-inf) [3]: 24600 ± 7530 ng·h/mL; MRT inf [3]: 44.1 ± 10.7 h; clearance [3]: 0.677 mL/min/kg; half-life [3]: 30.6 ± 0.32 h; Inhibition rate (%) ([4]; dose 0.05 μM): 50.23%*; A570 nm-A630 nm ([4]; dose 0.05 μM): 0.6578 ± 0.08044; Inhibition rate (%) ([4]; dose 0.1 μM): 54.21%**; A570 nm-A630 nm ([4]; dose 0.1 μM): 0.6052 ± 0.09358; Inhibition rate (%) ([4]; dose 0.2 μM): 63.33%*; A570 nm-A630 nm ([4]; dose 0.2 μM): 0.4847 ± 0.06551
